Data taken from ChEMBL document CHEMBL6109128, “Copper-KRAS-COX2 Axis: A Therapeutic Vulnerability in Pancreatic Cancer” (J Med Chem, 2025).
Active and inactive are the calls of the source. The rule behind the calls is not given here.

Assays:
MIA PaCa-2 [1] = test: Cytotoxicity against human MIA PaCa-2 cells by MTT assay; assay type: functional, cell-based
[2] = Metabolic stability in mouse liver microsome assessed as half life measured up to 60 mins by LC-MS/MS analysis; assay type: ADME; settings: liver microsomes
[3] = Metabolic stability in human liver microsome assessed as half life measured up to 60 mins by LC-MS/MS analysis; assay type: ADME; settings: liver microsomes
[4] = Toxicity in C57BL/6 mouse assessed as body weight loss at 20 to 40 mg/kg, ip administered for 28 days; assay type: organism-based; settings: in vivo, 672 h, dose 20-40 mg/kg, time 28 day
[5] = Drug metabolism in mouse plasma assessed as 5-(5-((6-fluoroquinolin-8-yl)carbamoyl)pyrazin-2-yl)-2-methyl-2,5-diazabicyclo[2.2.1]heptane 2-oxide metabolite formation by measuring Retention time measured after 1 hr by LC-MS/MS analysis; assay type: ADME, cell-free
[6] = Drug metabolism in mouse plasma assessed as 5-(2,5-diazabicyclo[2.2.1]heptan-2-yl)-N-(6-fluoroquinolin-8-yl)pyrazine-2-carboxamide metabolite formation by measuring Retention time measured after 1 hr by LC-MS/MS analysis; assay type: ADME, cell-free
[7] = Drug metabolism in mouse plasma assessed as 5-(5-methyl-2,5-diazabicyclo[2.2.1]hept-3-en-2-yl)pyrazine-2-carbaldehyde metabolite formation by measuring Retention time measured after 1 hr by LC-MS/MS analysis; assay type: ADME, cell-free
[8] = Drug metabolism in mouse plasma assessed as 6-fluoro-8-isocyanatoquinoline metabolite formation by measuring Retention time measured after 1 hr by LC-MS/MS analysis; assay type: ADME, cell-free
[9] = Drug metabolism in mouse plasma assessed as 6-fluoroquinolin-8-amine metabolite formation by measuring Retention time measured after 1 hr by LC-MS/MS analysis; assay type: ADME, cell-free
[10] = Drug metabolism in mouse plasma assessed as retention time measured after 1 hr by LC-MS/MS analysis; assay type: ADME, cell-free
PANC-1 = test: Cytotoxicity against human PANC-1 cells by MTT assay; assay type: functional, cell-based
BXPC-3 = test: Cytotoxicity against human BXPC-3 cells by MTT assay; assay type: functional, cell-based
Panc02 = test: Cytotoxicity against mouse Panc02 cells by MTT assay; assay type: functional, cell-based
SU.86.86 = test: Cytotoxicity against human SU-86-86 cells by MTT assay; assay type: functional, cell-based
[11] = Cytotoxicity against mouse KPC2 cells by MTT assay; assay type: functional, cell-based
HCT-116 = test: Cytotoxicity against human HCT-116 cells assessed as cell death up to 1 uM incubated for 6 days in presence of NAC; assay type: functional, cell-based; settings: time 6.0 day
MIA PaCa-2 [12] = test: Cytotoxicity against human MIA PaCa-2 cells assessed as cell death up to 0.1 uM incubated for 6 days in presence of NAC; assay type: functional, cell-based; settings: time 6.0 day

| SMILES | IC50 (MIA PaCa-2 [1]) [nM] | also measured |
| --- | --- | --- |
| Cc1cc(NC(=O)c2cnc(N3C[C@@H]4[C@@H](N)[C@@H]4C3)cn2)c2ncccc2c1 | 500 | half-life [2]: > 60 min |
| O=C(Nc1cc(F)cc2cccnc12)c1cnc(N2CC3CC2CN3)cn1 (configuration not stated) | 9400 | – |
| O=C(Nc1cc(F)cc2cccnc12)c1cnc(N2CC3CC2CO3)cn1 (configuration not stated) | 900 | – |
| CN(C)C/C=C/C(=O)N1CCN(c2cnc(C(=O)Nc3cc(F)cc4cccnc34)cn2)CC1 | 4400 | – |
| CN1CCN(c2cnc(C(=O)Nc3cc(F)cc4cccnc34)cn2)CC1 | 700 | – |
| CC1(N)CN(c2cnc(C(=O)Nc3cc(F)cc4cccnc34)cn2)C1 | 2100 | – |
| Cc1cc(NC(=O)c2cnc(N3CCN(S(C)(=O)=O)CC3)cn2)c2ncccc2c1 | 1000 | – |
| O=C(Nc1cc(F)cc2cccnc12)c1cnc(N2CCNC3(CC3)C2)cn1 | 800 | – |
| O=C(Nc1cc(F)cc2cccnc12)c1cnc(N2CC3CC2CS3(=O)=O)cn1 (configuration not stated) | 1400 | – |
| O=C(Nc1cc(F)cc2cccnc12)c1cnc(N2CCNC(C(F)(F)F)C2)cn1 (configuration not stated) | 800 | – |
| O=C(Nc1cccc2ccccc12)c1cnc(N2CCNCC2)cn1 | > 30000 | – |
| NC1CC2(C1)CN(c1cnc(C(=O)Nc3cc(F)cc4cccnc34)cn1)C2 | 5500 | – |
| O=C(Nc1cc(F)cc2cccnc12)c1cnc(N2CCC(O)C2)cn1 (configuration not stated) | 1000 | – |
| Cc1cc(NC(=O)CNCCN2CCN(C)CC2)c2ncccc2c1 | > 30000 | – |
| NC1CCCN(c2cnc(C(=O)Nc3cc(F)cc4cccnc34)cn2)C1 (configuration not stated) | 1800 | – |
| O=C(Nc1cc(F)cc2cccnc12)c1cnc(N2CCC(N3CCCC3)CC2)cn1 | 500 | – |
| N[C@@H]1CCN(c2cnc(C(=O)Nc3cc(F)cc4cccnc34)cn2)C[C@@H]1F | 1100 | – |
| Cc1cc(C(=O)Nc2ccc(N3CCN(C)CC3)nc2)c2ncccc2c1 | 21500 | – |
| Cc1cc(NC(=O)c2cnc(N3CCC4(CC3)CO[C@@H](C)[C@H]4N)cn2)c2ncccc2c1 | 1000 | half-life [2]: 11.7 min |
| N[C@@H]1CN(c2cnc(C(=O)Nc3cc(F)cc4cccnc34)cn2)CC12COC2 | 11600 | – |
| C[C@@H]1CN(c2cnc(C(=O)Nc3cc(F)cc4cccnc34)cn2)C[C@H](C)N1 | 300 | – |
| CN1C2CCC1CN(c1cnc(C(=O)Nc3cc(F)cc4cccnc34)cn1)C2 | 400 | half-life [2]: 13.5 min; half-life [3]: > 60 min |
| O=C(Nc1cc(F)cc2cccnc12)c1cnc(N2CCN3CCCC3C2)cn1 (configuration not stated) | 1700 | – |
| O=C(Nc1cc(F)cc2cccnc12)c1cnc(N2CCC(F)(F)CC2)cn1 | 3700 | – |
| C=CC(=O)N1CCN(c2cnc(C(=O)Nc3cc(C)cc4cccnc34)cn2)CC1 | 900 | half-life [2]: 3 min |
| O=C(Nc1cc(F)cc2cccnc12)c1cnc(N2C[C@@H](O)CC2=O)cn1 | 4700 | – |
| N[C@@H]1CCCC12CCN(c1cnc(C(=O)Nc3cc(F)cc4cccnc34)cn1)CC2 | 1500 | – |

| SMILES | IC50 (MIA PaCa-2 [1]) [nM] | also measured |
| --- | --- | --- |
| Cc1cc(NC(=O)c2ccc(N3CCN(C)CC3)cc2)c2ncccc2c1 | 25800 | – |
| O=C(Nc1cc(F)cc2cccnc12)c1cnc(N2CCOCC2)cn1 | 1000 | – |
| O=C(Nc1cc(F)cc2cccnc12)c1cnc(N2CCNCC2)cn1 | 400 | half-life [2]: 1.8 min; half-life [3]: > 60 min |
| C[C@@H]1CN(c2cnc(C(=O)Nc3cc(F)cc4cccnc34)cn2)CCN1 | 500 | – |
| N[C@H]1CN(c2cnc(C(=O)Nc3cc(F)cc4cccnc34)cn2)C[C@H]1F | 300 | half-life [2]: > 60 min; half-life [3]: > 60 min |
| NC1C2CCC1CN(c1cnc(C(=O)Nc3cc(F)cc4cccnc34)cn1)C2 (configuration not stated) | 800 | half-life [2]: > 60 min; half-life [3]: > 60 min; Activity [4]: Non-toxic |
| Cc1cc(NC(=O)c2cnc(N3CCNCC3)cn2)c2ncccc2c1 | 900 | half-life [2]: 4 min |
| CN1CC2CC1CN2c1cnc(C(=O)Nc2cc(F)cc3cccnc23)cn1 (configuration not stated) | 100 | half-life [2]: 10.5 min; half-life [3]: > 60 min; Retention_time [5]: 6.44 min; Retention_time [6]: 6.22 min; Retention_time [7]: 6.19 min; Retention_time [8]: 6.23 min; Retention_time [9]: 6.23 min; Retention_time [10]: 6.22 min |
| CN1CCN(c2cnc(C(=O)Nc3cccc4ccccc34)cn2)CC1 | > 30000 | – |
| NC1CCC2(CC1)CN(c1cnc(C(=O)Nc3cc(F)cc4cccnc34)cn1)C2 | 4700 | – |
| CCN(CC)C(=S)SSC(=S)N(CC)CC [DISULFIRAM] | 100 | IC50 (PANC-1): 100 nM; IC50 (BXPC-3): 300 nM; IC50 (Panc02): 100 nM; IC50 (SU.86.86): 300 nM; IC50 [11]: 200 nM; Activity (HCT-116): Active |
| O=C(Nc1cc(F)cc2cccnc12)c1cnc(N2CCC(F)C2)cn1 (configuration not stated) | 2800 | – |
| C[C@@H]1CNCCN1c1cnc(C(=O)Nc2cc(F)cc3cccnc23)cn1 | 400 | – |
| Cc1cc(NCc2cnc(N3CCNCC3)cn2)c2ncccc2c1 | 17600 | – |
| O=C(Nc1cc(F)cc2cccnc12)c1cnc(N2CCNC(F)C2)cn1 (configuration not stated) | 3400 | – |
| O=C(Nc1cc(F)cc2cccnc12)c1cnc(N2CCC(O)(C(F)(F)F)CC2)cn1 | 2100 | – |
| O=C(Nc1cc(F)cc2cccnc12)c1cnc(N2CC3C(C2)C3(F)F)cn1 (configuration not stated) | 5400 | – |
| CS(=O)(=O)N1CCN(c2cnc(C(=O)Nc3cc(F)cc4cccnc34)cn2)CC1 | 3300 | – |
| NC1CC2(CCN(c3cnc(C(=O)Nc4cc(F)cc5cccnc45)cn3)CC2)C1 | 3000 | – |
| CC1CNCCCN1c1cnc(C(=O)Nc2cc(F)cc3cccnc23)cn1 (configuration not stated) | 1100 | – |
| CN1CNC(=O)C12CCN(c1cnc(C(=O)Nc3cc(F)cc4cccnc34)cn1)CC2 | 2900 | – |
| CC1(C)CN(c2cnc(C(=O)Nc3cc(F)cc4cccnc34)cn2)CCN1 | 300 | – |
| Cc1cc(NC(=O)c2cnc(N3CCN(C(=O)C4CC4)CC3)cn2)c2ncccc2c1 | 1200 | – |
| CCN(CC)C1CCN(c2cnc(C(=O)Nc3cc(F)cc4cccnc34)cn2)CC1 | 500 | – |
| O=C(Nc1cc(F)cc2cccnc12)c1cnc(N2CCn3c(nnc3C(F)(F)F)C2)cn1 | 4100 | – |
| CN(NC(=O)CC(=O)NN(C)C(=S)c1ccccc1)C(=S)c1ccccc1 [ELESCLOMOL] | 20 | IC50 (PANC-1): 30 nM; IC50 (BXPC-3): 50 nM; IC50 (Panc02): 10 nM; IC50 (SU.86.86): 20 nM; IC50 [11]: 200 nM; Activity (MIA PaCa-2 [12]): Active |
| O=C(Nc1cc(F)cc2cccnc12)c1cnc(N2CCn3cnnc3C2)cn1 | > 30000 | – |
